Each structure is given as a SMILES string. Activity calls are given as the source filed them.

Assay [1] has as its target Polyadenylate-binding protein 1 (Homo sapiens, UniProt P11940). In words: PABP poly(A) RNA binding inhibitors, primary screen, biochemical, fluorescence polarization, uHTS (AID 2014). (In general: In fluorescence polarisation assays a small probe gives low polarisation when free and higher when bound to something large.)
Assay [2] concerns the target Eukaryotic translation initiation factor 4H (Homo sapiens, UniProt Q15056). The assay is described as follows: human eIF4H binding inhibitors, primary screen, translation initiation inhibitor project, biochemical, uHTS, fluorescence polarization (AID 2012).
Assay [3] can be described thus: Artemis endonuclease inhibitor potency, dose response, biochemical, fluorescence intensity (AID 720701).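 Also: Artemis endonuclease enzyme.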 The class given is functional.
For assay [4], the target named is Likely tRNA 2'-phosphotransferase (Candida albicans (strain SC5314 / ATCC MYA-2876) (Yeast), UniProt Q5A7N4). The assay is described as follows: TPT1 tRNA phosphotransferase inhibitors, dose response, biochemical, fluorescence polarization (AID 2160).
Likely tRNA 2'-phosphotransferase, sequence (Q5A7N4 whole entry): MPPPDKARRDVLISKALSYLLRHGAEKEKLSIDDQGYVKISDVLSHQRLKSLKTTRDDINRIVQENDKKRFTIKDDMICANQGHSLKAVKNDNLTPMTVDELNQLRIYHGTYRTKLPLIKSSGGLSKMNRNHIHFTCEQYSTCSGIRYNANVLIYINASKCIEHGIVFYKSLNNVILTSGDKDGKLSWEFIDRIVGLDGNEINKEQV
Assay [5] can be described thus: inhibitors of intracellular T. cruzi replication, confirmation, NIH3T3 host cells, beta-gal luminescence (AID 2044).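 Also: intracellular parasites grown in NIH/3T3 mouse fibroblasts as host cells; luminescent beta-galactosidase reporter signal from transgenic T. cruzi replicating inside host cells; inhibitors lower the luminescence signal.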 The class given is functional, cell-based.
In the next assay the target is T1, Protein RecA (Mycobacterium tuberculosis, UniProt P9WHJ3).
T1 sequence (P9WHJ3 whole entry): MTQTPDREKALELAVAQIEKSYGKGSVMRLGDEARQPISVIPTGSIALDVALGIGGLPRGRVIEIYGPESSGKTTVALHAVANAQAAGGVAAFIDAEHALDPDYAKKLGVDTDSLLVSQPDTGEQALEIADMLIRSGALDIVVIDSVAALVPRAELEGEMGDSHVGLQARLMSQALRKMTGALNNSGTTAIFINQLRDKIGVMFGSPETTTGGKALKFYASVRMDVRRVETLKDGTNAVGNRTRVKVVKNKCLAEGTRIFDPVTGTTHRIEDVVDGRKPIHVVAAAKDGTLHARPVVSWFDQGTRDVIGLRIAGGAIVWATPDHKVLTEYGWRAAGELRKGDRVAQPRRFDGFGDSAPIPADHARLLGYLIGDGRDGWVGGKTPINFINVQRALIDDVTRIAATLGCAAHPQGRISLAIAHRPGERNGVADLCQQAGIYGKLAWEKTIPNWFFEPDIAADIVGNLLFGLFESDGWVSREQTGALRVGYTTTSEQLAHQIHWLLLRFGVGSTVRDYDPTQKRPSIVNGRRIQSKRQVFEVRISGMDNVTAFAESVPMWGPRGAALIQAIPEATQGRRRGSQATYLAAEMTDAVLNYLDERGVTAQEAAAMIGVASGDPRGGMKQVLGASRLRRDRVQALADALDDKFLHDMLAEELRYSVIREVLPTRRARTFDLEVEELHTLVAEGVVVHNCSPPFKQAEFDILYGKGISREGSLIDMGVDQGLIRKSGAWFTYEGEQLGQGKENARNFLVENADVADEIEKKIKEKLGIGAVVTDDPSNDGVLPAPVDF
The assay is described as follows: Fluorescence Cell-Free Homogeneous Dose Retest to Identify Inhibitors of RecA-Intein Splicing Activity. [Related pubchem assays (depositor defined):AID2097, AID2223, AID489010, AID492950]. In kind it is functional.

Assay [6] deals with Guanyl-specific ribonuclease T1 (Aspergillus oryzae (strain ATCC 42149 / RIB 40), UniProt P00651). In words: RNase T1 inhibitors, dose response, counter-screen for TPT1 inhibitor project, biochemical, fluorescence polarization, 1536-well (AID 2167). (Counterscreens check selectivity or assay interference.)
Guanyl-specific ribonuclease T1, sequence (P00651 whole entry): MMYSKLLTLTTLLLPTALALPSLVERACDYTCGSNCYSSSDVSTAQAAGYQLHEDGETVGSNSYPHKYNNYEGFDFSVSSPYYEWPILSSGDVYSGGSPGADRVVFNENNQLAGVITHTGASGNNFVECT
A short description of assay [7]: cytotoxicity toward NIH3T3 fibroblasts, dose response, counter-screen, cell-based, ATP luminescence, mouse fibroblasts (AID 2010).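 Also: cells exposed to compound for about 90 hours before reading.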 In kind it is functional.
Assay [8] concerns the target T2, Replicative DNA helicase DnaB (Mycobacterium tuberculosis, UniProt P9WMR3).
T2 sequence (P9WMR3 whole entry): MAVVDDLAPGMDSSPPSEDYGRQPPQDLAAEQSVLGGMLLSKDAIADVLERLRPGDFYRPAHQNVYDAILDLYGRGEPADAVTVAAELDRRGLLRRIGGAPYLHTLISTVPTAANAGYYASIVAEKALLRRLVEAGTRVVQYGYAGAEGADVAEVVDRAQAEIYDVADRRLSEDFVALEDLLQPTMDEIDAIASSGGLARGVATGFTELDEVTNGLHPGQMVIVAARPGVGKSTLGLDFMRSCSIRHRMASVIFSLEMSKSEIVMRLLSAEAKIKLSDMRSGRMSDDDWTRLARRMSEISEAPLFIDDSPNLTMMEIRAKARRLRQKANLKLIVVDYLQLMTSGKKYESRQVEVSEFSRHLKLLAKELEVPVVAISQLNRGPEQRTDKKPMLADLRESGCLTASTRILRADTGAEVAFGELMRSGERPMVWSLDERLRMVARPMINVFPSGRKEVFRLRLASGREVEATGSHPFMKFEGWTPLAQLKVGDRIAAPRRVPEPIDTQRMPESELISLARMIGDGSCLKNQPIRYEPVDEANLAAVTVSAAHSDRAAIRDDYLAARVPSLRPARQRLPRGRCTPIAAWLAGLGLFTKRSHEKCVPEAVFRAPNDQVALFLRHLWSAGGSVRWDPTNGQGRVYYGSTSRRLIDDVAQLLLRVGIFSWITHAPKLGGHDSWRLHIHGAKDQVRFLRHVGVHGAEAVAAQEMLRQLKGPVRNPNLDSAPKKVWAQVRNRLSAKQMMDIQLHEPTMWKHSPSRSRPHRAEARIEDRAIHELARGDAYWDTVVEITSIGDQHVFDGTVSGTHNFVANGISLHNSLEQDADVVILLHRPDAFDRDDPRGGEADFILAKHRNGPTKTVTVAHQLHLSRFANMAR
The assay is described as follows: DnaB intein splicing inhibitors, dose response, biochemical, cell-free fluorescence (AID 449749). In kind it is functional.

Polyadenylate-binding protein 1, sequence (P11940 whole entry): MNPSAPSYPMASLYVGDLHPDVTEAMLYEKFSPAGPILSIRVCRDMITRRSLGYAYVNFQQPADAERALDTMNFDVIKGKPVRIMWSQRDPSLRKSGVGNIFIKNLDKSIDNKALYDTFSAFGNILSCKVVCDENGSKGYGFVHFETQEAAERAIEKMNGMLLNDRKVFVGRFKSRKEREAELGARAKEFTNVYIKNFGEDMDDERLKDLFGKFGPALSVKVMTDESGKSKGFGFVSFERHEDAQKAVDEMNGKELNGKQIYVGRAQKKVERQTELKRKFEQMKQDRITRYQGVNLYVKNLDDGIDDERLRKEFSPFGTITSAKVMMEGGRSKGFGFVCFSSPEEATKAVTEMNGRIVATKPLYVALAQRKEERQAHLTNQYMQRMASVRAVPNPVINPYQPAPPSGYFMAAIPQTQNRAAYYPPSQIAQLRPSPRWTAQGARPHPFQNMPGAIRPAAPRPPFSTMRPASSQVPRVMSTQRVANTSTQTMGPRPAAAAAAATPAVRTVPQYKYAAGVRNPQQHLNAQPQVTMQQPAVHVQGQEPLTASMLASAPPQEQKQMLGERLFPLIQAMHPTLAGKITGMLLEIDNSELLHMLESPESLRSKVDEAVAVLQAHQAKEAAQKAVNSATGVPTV

For `O=C1C=C(NCc2ccc(Cl)cc2)CC(c2ccco2)C1` (centres undefined), the figures for the IC50 in assay [1] and in [2] were 64.6 µM (active) and 41.3 µM (active), respectively.
Consider `Cc1ccc2nc(N/N=C\c3ccc([N+](=O)[O-])o3)nc(-c3ccccc3)c2c1`, for which the IC50 is > 20 µM (inactive) in assay [3], > 55.7 µM (not active) in [4] and > 55.7 µM (not active) in [6]. For the same compound, the EC50 in [5] was 0.176 µM (active); at Protein RecA, 208 µM (inconclusive); in assay [7] it was 9.01 µM (active). Moreover, in assay [8], the AC50 was > 380 µM (inactive).

What is called IC50 is the concentration needed to halve the response being measured. For orientation: EC50 means the concentration that produces a half-maximal response. The term AC50 denotes the concentration at which the activity in the assay is half-maximal.
